Test results taken from patent EP0297815B1, “Fluorine containing renin inhibitors” (PFIZER INC., priority 1987, dated 1989).

Target: T1, renin (Homo sapiens, UniProt P00797)
T1 sequence (P00797 67-406): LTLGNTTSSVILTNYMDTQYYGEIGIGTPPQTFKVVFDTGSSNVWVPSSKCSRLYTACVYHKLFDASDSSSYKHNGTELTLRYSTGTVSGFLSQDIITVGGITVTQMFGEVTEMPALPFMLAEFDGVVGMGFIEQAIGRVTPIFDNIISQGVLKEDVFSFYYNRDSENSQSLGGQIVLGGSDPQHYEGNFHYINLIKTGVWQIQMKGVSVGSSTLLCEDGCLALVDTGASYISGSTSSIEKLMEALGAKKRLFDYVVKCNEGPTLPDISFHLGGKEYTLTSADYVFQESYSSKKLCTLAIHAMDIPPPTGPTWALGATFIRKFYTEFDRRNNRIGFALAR
Experiment: renin inhibitory potency
Format: biochemical
Conditions: compared with the more retained 2R,5R isomer separated by HPLC
Source text: The activity of the compounds of the present invention as inhibitors of the angiotensinogen-cleaving activity of renin may be determined by studying (1) their ability to inhibit the angiotensinogen-cleaving activity of renin in vitro and (2) their ability to antagonize the exogenous renin-induced pressor response in vivo.

renin inhibitory potency: more active
SMILES: CCCC[C@H](NC(=O)[C@H](Cc1ccccc1)NC(=O)N1CCOCC1)C(=O)N[C@@H](CC1CCCCC1)C(=O)C(F)(F)[C@@H](CC(C)C)C(=O)OCC [2S,5S product, ethyl (2S,5S)-2-isobutyl-3,3-difluoro-4-keto-5-N-(N-[morpholinocarbonyl-L-phenylalanyl]-L-norleucyl)-amino-6-cyclohexylhexanoate]
